System: Proteus strains (583 clinical isolates)
Assay: Antimicrobial susceptibility testing (AST) on frozen reference panels, minimal inhibitory concentration (MIC) read visually
Format: cell-based, Proteus mirabilis, Proteus penneri and Proteus vulgaris
Settings: classical AST
Method: The inventors selected 583 Proteus strains from the microbiology strain collection at Siemens Healthcare Diagnostics (West Sacramento, Calif.) for susceptibility testing and whole genome sequencing.
Frozen reference AST panels were prepared following Clinical Laboratory Standards Institute (CLSI) recommendations. The following antimicrobial agents (with μg/ml concentrations shown in parentheses) were included in the panels: Amoxicillin/K Clavulanate (0.5/0.25-64/32), Ampicillin (0.25-128), Ampicillin/Sulbactam (0.5/0.25-64/32), Aztreonam (0.25-64), Cefazolin (0.5-32), Cefepime (0.25-64), Cefotaxime (0.25-128), Ceftazidime (0.25-64), Ceftriaxone (0.25-128), Cefuroxime (1-64), Cephalothin (1-64), Ciprofloxacin (0.015-8), Ertepenem (0.12-32), Gentamicin (0.12-32), Imipenem (0.25-32), Levofloxacin (0.25-16), Meropenem (0.12-32), Piperacillin/Tazobactam (0.25/4-256/4), Tetracycline (0.5-64), Tobramycin (0.12-32), and Trimethoprim/Sulfamethoxazole (0.25/4.7-32/608). […]
Isolates were cultured on trypticase soy agar with 5% sheep blood (BBL, Cockeysville, Md.) and incubated in ambient air at 35±1° C. for 18-24 h. […] Panel results were read visually, and minimal inhibitory concentrations (MIC) were determined.
Proteus strains to be tested were seeded on agar plates and incubated under growth conditions for 24 hours. […] Bacterial growth was determined by observing turbidity. […]

Structure (SMILES): CC1(C)S[C@@H]2[C@H](NC(=O)[C@H](N)c3ccccc3)C(=O)N2[C@H]1C(=O)O [ampicillin, Ampicillin]
- resistance of Proteus observed against the agent: high resistance
